According to patent US20150274751A1, “TREATMENT OF S[…] AN INHIBITOR OF CBP/CATENIN” (PRISM Pharma Co., Ltd., priority 2012, published 2015):

Tests used:
[1] = body weight in bleomycin-injected mice; type: in vivo, female C3H/HeJ inbred mice (Mus musculus); settings: Group 4: bleomycin plus DEX 1 mg/kg IP BID; differences among groups at sacrifice not significant (P>0.05)
Protocol: Dermal fibrosis was induced locally by six weeks of once-daily subcutaneous injections of bleomycin (0.1 U in 0.1 mL) into a defined area on the back of each mouse. Test and control articles were administered by twice-daily intraperitoneal injection starting from Day 14 (i.e., two weeks after the initiation of bleomycin injection). For mice of Groups 1-4, test/control article were administered (BID, IP) for four weeks, starting from Day 14 (i.e., two weeks after the initial bleomycin injection) administration was performed twice daily. Group 1 received negative control article (PBS) at 200 μL/mouse. Groups 2 and 3 received low- and high-dose test article dosing solutions (0.05 and 0.5 mg/mL Compound A) at doses of 0.5 and 5 mg/kg, respectively. Group 4 received DEX dosing solution (1 mg/mL) at doses of 1 mg/kg. For animals of Groups 2-4, doses were administered at dose volumes of 10 mL/kg, and dose volumes for individual animals were recalculated once weekly based on the most recent body weights. Animals were administered bleomycin and test and control articles in two cohorts, with dosing staggered by one day. Cohort A was composed of the first five animals in each group [x01-x05, where x denoted the study group number (1, 2, 3, or 4)]. Cohort B was composed of the remaining animals (x06-x10). […]

[2] = system: bleomycin-induced dermal fibrosis; experiment: murine model of bleomycin-induced dermal fibrosis (histopathology scores); type: in vivo, female C3H/HeJ inbred mice (Mus musculus)
Text: The objective of this study was to assess the effects of the test article Compound A, an alpha helix mimetic β-catenin inhibitor compound, in a murine model of bleomycin-induced dermal fibrosis. Compound A is 4-(((6S,9S,9aS)-1-(benzylcarbamoyl)-2,9-dimethyl-4,7-dioxo-8-(quinolin-8-ylmethyl)octahydro-1H-pyrazino[2,1-c][1,2,4]triazin-6-yl)methyl)phenyl dihydrogen phosphate. Negative and positive control articles were phosphate buffered saline (PBS) and dexamethasone (DEX, a known treatment for scleroderma), respectively.
The high-dose (0.5 mg/mL) dosing solution of test article was prepared by mixing 4 mL of test article (stock solution at […]) with 36 mL of PBS. The low-dose (0.05 mg/mL) dosing solution was prepared by mixing 4 mL of the high-dose test article dosing solution (0.5 mg/mL) with 36 mL of PBS. The DEX dosing solution (1 mg/mL) was prepared by mixing 1 mL of the DEX stock solution (3 mg/mL) with 2 mL of PBS. The test and positive control articles were prepared once weekly, aliquoted and stored at 4° C. protected from light.
Forty-five female C3H/HeJ inbred mice (Mus musculus) at ages of approximately 6 weeks were obtained from Jackson Laboratory (Bar Harbor, Me.) for use in the study. Mice were selected for the study since these animals are an accepted species frequently used in pre-clinical evaluation of drugs intended for human use.
Dermal fibrosis was induced locally by six weeks of once-daily subcutaneous injections of bleomycin (0.1 U in 0.1 mL) into a defined area on the back of each mouse. Test and control articles were administered by twice-daily intraperitoneal injection starting from Day 14 (i.e., two weeks after the initiation of bleomycin injection). For mice of Groups 1-4, test/control article were administered (BID, IP) for four weeks, starting from Day 14 (i.e., two weeks after the initial bleomycin injection) administration was performed twice daily. Group 1 received negative control article (PBS) at 200 μL/mouse. Groups 2 and 3 received low- and high-dose test article dosing solutions (0.05 and 0.5 mg/mL Compound A) at doses of 0.5 and 5 mg/kg, respectively. Group 4 received DEX dosing solution (1 mg/mL) at doses of 1 mg/kg. […]
Mice were euthanized on Day 42, i.e., following six weeks of bleomycin injection and four weeks of test/control article treatment. A full gross necropsy was performed on each mouse, and any macroscopic abnormality was recorded. […]
Formalin-fixed skin and lung tissues from each mouse were processed for histopathology. […] Slides were evaluated for dermal fibrosis and dermal inflammation. […] Dermal fibrosis and inflammation were scored using the industry standard 5-point scoring system as follows: 0=no significant changes; 1=trace to minimal severity; 2=mild severity; 3=moderate severity; 4=marked severity. […]

Row | Structure (SMILES) | decrease in mean body weight [1] | dermal sclerosis scores vs vehicle-treated mice (FIG. 1) ([2]; Compound A at either dose (0.5 and 5 mg/kg IP BID Days 14-41), Day 42, P<0.01) | dermal fibrosis (summary) ([2]; bleomycin-injected mice, treatment IP BID Days 14-41) | dermal inflammation scores ([2]; bleomycin-injected mice, Compound A 0.5 and 5 mg/kg IP BID Days 14-41, Day 42 histopathology, 0-4 score) | amount of dermal fibrosis (qualitative histopathology) ([2]; both test article-treated groups (0.5 and 5 mg/kg IP BID), Day 42)
1 | C[C@@H]1C[C@H]2[C@@H]3CCC4=CC(=O)C=C[C@]4(C)[C@@]3(F)[C@@H](O)C[C@]2(C)[C@@]1(O)C(=O)CO [DEX, dexamethasone] | largest decrease |  |  |  | 
2 | C[C@H]1[C@H]2N(C(=O)CN(C)N2C(=O)NCc2ccccc2)[C@@H](Cc2ccc(OP(=O)(O)O)cc2)C(=O)N1Cc1cccc2cccnc12 [Compound A, 4-(((6S,9S,9aS)-1-(benzylcarbamoyl)-2,9-dimethyl-4,7-dioxo-8-(quinolin-8-ylmethyl)octahydro-1H-pyrazino[2,1-c][1,2,4]triazin-6-yl)methyl)phenyl dihydrogen phosphate] |  | significant decrease | ameliorated | did not significantly affect | mildly reduce
